Measured values taken from US10155259B2 (Merck Sharp & Dohme B.V., priority 2011, dated 2018).
pIC50: −log10 of the molar value.

target: T1, human FSH receptor (Homo sapiens, UniProt P23945); assay: Antagonistic activity of compounds at the human FSH receptor expressed in CHO cells (CRE-luciferase reporter); assay type: cell-based; conditions: CHO cells stably transfected with human FSH receptor and CRE/luciferase reporter; together with 49 μM recFSH; 4 hours incubation; 1% DMSO; read-out: IC50 (concentration of test compound causing half-maximal inhibition of the maximally attainable inhibition of the luciferase stimulation)
T1 construct: expressed in transfected cells; host or cells: CHO cells, stably transfected; cotransfected with CRE-luciferase reporter
T1 sequence (P23945 18-695): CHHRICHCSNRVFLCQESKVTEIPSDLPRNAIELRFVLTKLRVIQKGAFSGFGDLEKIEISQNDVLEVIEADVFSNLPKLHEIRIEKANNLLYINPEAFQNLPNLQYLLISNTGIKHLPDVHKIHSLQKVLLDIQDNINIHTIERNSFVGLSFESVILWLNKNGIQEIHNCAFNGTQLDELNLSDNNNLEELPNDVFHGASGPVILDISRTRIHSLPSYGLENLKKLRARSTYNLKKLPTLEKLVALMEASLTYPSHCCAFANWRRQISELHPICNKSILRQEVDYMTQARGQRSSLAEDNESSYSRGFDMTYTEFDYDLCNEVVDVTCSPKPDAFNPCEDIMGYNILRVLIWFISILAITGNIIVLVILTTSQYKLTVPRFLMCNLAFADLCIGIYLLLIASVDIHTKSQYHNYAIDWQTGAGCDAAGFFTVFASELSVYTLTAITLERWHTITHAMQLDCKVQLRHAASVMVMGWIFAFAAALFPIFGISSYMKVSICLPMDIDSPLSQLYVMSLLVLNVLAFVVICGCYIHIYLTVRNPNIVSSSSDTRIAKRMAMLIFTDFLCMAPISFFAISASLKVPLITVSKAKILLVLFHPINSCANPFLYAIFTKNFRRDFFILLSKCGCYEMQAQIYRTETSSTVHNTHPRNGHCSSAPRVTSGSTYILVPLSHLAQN
Method: Antagonistic Activity of Compounds at the Human FSH Receptor Expressed in CHO Cells
Antagonistic activity of the compounds at the human FSH receptor was determined in Chinese Hamster Ovary (CHO) cells stably transfected with the human FSH receptor and cotransfected with a cAMP responsive element (CRE)/promotor directing the expression of a firefly luciferase reporter gene. Binding of the compounds to the Gs protein-coupled FSH receptor will result in an increase of cAMP, which in turn will induce an increased transactivation of the luciferase reporter. The cells (7,500 cells/well of a 384 well plate) were incubated in Dulbecco' minimal essential F12 modified medium (Invitrogen), supplemented with 1 μg/ml bovine insulin, 5 μg/ml human apo-transferrin, 100 U/ml penicillin G and 100 μg/ml streptomycin with the test compounds (concentration between 0.316 nM and 10.0 μM) in duplicate together with […] (which, at this concentration in the absence of test compound, induces 80% of the maximal luciferase stimulation) in a humidified atmosphere (95%) at 5-7% CO2 and 37° C. The final concentration of DMSO was 1%. After 4 hours of incubation, plates were allowed to adjust to room temperature for 1 hour. Then, SteadyLite (PerkinElmer) solution was added to the wells and cells were allowed to lyse for at least 1 hour at room temperature. Subsequently, luciferase activity was measured in a luminescence counter. The signal is expressed as counts per second (cps). The IC50 (concentration of test compound causing half-maximal (50%) inhibition of the maximally attainable inhibition of the luciferase stimulation by the compound) and efficacy of the compounds were determined using the software program MathIQ (version 2.3, ID Business Solutions Limited).

**Q.** With COc1cc2c(cc1C(=O)N(C)C)-c1cc(C(=O)N[C@@H](CO)Cc3c[nH]c4ccccc34)c(-c3cccc(F)c3)n1CC2 [Example 48, (R)-3-(3-fluorophenyl)-N2-(1-hydroxy-3-(1H-indol-3-yl)propan-2-yl)-8-methoxy-N9,N9-dimethyl-5,6-dihydropyrrolo[2,1-a]isoquinoline-2,9-dicarboxamide] as the molecule, how does the pIC50 read?
**A.** 6.00 to 7.00

**Q.** With COc1cc2c(cc1-c1cncnc1)-c1cc(C(=O)N[C@@H](CO)Cc3c[nH]c4ccccc34)c(-c3cccs3)n1CC2 [Example 49, (R)—N-(1-hydroxy-3-(1H-indol-3-yl)propan-2-yl)-8-methoxy-9-(pyrimidin-5-yl)-3-(thiophen-2-yl)-5,6-dihydropyrrolo[2,1-a]isoquinoline-2-carboxamide] as the molecule, how does the pIC50 read?
**A.** > 7.00

**Q.** COc1cc2c(cc1-c1cncnc1)-c1cc(C(=O)N[C@@H](CO)Cc3c[nH]c4ccccc34)c(-c3cccc(F)c3)n1CC2 [Example 50, (R)-3-(3-fluorophenyl)-N-(1-hydroxy-3-(1H-indol-3-yl)propan-2-yl)-8-methoxy-9-(pyrimidin-5-yl)-5,6-dihydropyrrolo[2,1-a]isoquinoline-2-carboxamide] was tested. Which pIC50 did it give?
**A.** > 7.00

**Q.** How did the pIC50 turn out when COc1cc2c(cc1-c1cnc(N(C)C)nc1)-c1cc(C(=O)N[C@@H](CO)Cc3c[nH]c4ccccc34)c(-c3cccc(F)c3)n1CC2 [Example 51, (R)-9-(2-(dimethylamino)pyrimidin-5-yl)-3-(3-fluorophenyl)-N-(1-hydroxy-3-(1H-indol-3-yl)propan-2-yl)-8-methoxy-5,6-dihydropyrrolo[2,1-a]isoquinoline-2-carboxamide] was run?
**A.** 6.00 to 7.00

**Q.** COc1cc2c(cc1-c1cnn(C)c1)-c1cc(C(=O)N[C@@H](CO)Cc3c[nH]c4ccccc34)c(-c3cccc(F)c3)n1CC2 [Example 52, (R)-3-(3-fluorophenyl)-N-(1-hydroxy-3-(1H-indol-3-yl)propan-2-yl)-8-methoxy-9-(1-methyl-1H-pyrazol-4-yl)-5,6-dihydropyrrolo[2,1-a]isoquinoline-2-carboxamide] was tested. Which pIC50 did it give?
**A.** > 7.00

**Q.** How did the pIC50 turn out when COc1cc2c(cc1-c1cccnc1OC)-c1cc(C(=O)N[C@@H](CO)Cc3c[nH]c4ccccc34)c(-c3cccc(F)c3)n1CC2 [Example 53, 3-(3-fluorophenyl)-N—((R)-1-hydroxy-3-(1H-indol-3-yl)propan-2-yl)-8-methoxy-9-(2-methoxypyridin-3-yl)-5,6-dihydropyrrolo[2,1-a]isoquinoline-2-carboxamide] was run?
**A.** > 7.00

**Q.** How did the pIC50 turn out when COc1cc2c(cc1-c1cccnc1OC)-c1cc(C(=O)N[C@@H](CO)Cc3c[nH]c4ccccc34)c(-c3cccs3)n1CC2 [Example 54, N—((R)-1-hydroxy-3-(1H-indol-3-yl)propan-2-yl)-8-methoxy-9-(2-methoxypyridin-3-yl)-3-(thiophen-2-yl)-5,6-dihydropyrrolo[2,1-a]isoquinoline-2-carboxamide] was run?
**A.** > 7.00

**Q.** How did the pIC50 turn out when COc1cc2c(cc1-c1cnn(C)c1)-c1cc(C(=O)N[C@@H](CO)Cc3c[nH]c4ccccc34)c(-c3cccs3)n1CC2 [Example 55, (R)—N-(1-hydroxy-3-(1H-indol-3-yl)propan-2-yl)-8-methoxy-9-(1-methyl-1H-pyrazol-4-yl)-3-(thiophen-2-yl)-5,6-dihydropyrrolo[2,1-a]isoquinoline-2-carboxamide] was run?
**A.** > 7.00

**Q.** With COc1cc2c(cc1-c1cnc(N(C)C)nc1)-c1cc(C(=O)N[C@@H](CO)Cc3c[nH]c4ccccc34)c(-c3cccs3)n1CC2 [Example 56, (R)-9-(2-(dimethylamino)pyrimidin-5-yl)-N-(1-hydroxy-3-(1H-indol-3-yl)propan-2-yl)-8-methoxy-3-(thiophen-2-yl)-5,6-dihydropyrrolo[2,1-a]isoquinoline-2-carboxamide] as the molecule, how does the pIC50 read?
**A.** > 7.00

**Q.** How did the pIC50 turn out when COc1cc(-c2cc3c(cc2OC)CCn2c-3cc(C(=O)N[C@@H](CO)Cc3c[nH]c4ccccc34)c2-c2cccs2)ccn1 [Example 57, (R)—N-(1-hydroxy-3-(1H-indol-3-yl)propan-2-yl)-8-methoxy-9-(2-methoxypyridin-4-yl)-3-(thiophen-2-yl)-5,6-dihydropyrrolo[2,1-a]isoquinoline-2-carboxamide] was run?
**A.** > 7.00

**Q.** How did the pIC50 turn out when COc1ccc(-c2cc3c(cc2OC)CCn2c-3cc(C(=O)N[C@@H](CO)Cc3c[nH]c4ccccc34)c2-c2cccs2)cn1 [Example 58, (R)—N-(1-hydroxy-3-(1H-indol-3-yl)propan-2-yl)-8-methoxy-9-(6-methoxypyridin-3-yl)-3-(thiophen-2-yl)-5,6-dihydropyrrolo[2,1-a]isoquinoline-2-carboxamide] was run?
**A.** > 7.00

**Q.** With COc1cc2c(cc1-c1cn[nH]c1)-c1cc(C(=O)N[C@@H](CO)Cc3c[nH]c4ccccc34)c(-c3cccs3)n1CC2 [Example 59, (R)—N-(1-hydroxy-3-(1H-indol-3-yl)propan-2-yl)-8-methoxy-9-(1H-pyrazol-4-yl)-3-(thiophen-2-yl)-5,6-dihydropyrrolo[2,1-a]isoquinoline-2-carboxamide] as the molecule, how does the pIC50 read?
**A.** > 7.00

**Q.** With COc1cc2c(c(OC)c1OC)CCn1c-2cc(C(=O)N[C@@H](CO)Cc2c[nH]c3ccccc23)c1-c1ccccc1 [Example 60, (R)—N-(1-hydroxy-3-(1H-indol-3-yl)propan-2-yl)-7,8,9-trimethoxy-3-phenyl-5,6-dihydropyrrolo[2,1-a]isoquinoline-2-carboxamide] as the molecule, how does the pIC50 read?
**A.** > 7.00

**Q.** How did the pIC50 turn out when COc1cc2c(c(OC)c1OC)CCn1c-2cc(C(=O)N[C@@H](CO)Cc2c[nH]c3ccccc23)c1-c1cccs1 [Example 61, (R)—N-(1-hydroxy-3-(1H-indol-3-yl)propan-2-yl)-7,8,9-trimethoxy-3-(thiophen-2-yl)-5,6-dihydropyrrolo[2,1-a]isoquinoline-2-carboxamide] was run?
**A.** > 7.00

**Q.** COc1cc2c(c(OC)c1OC)CCn1c-2cc(C(=O)N[C@@H](CO)Cc2c[nH]c3ccccc23)c1-c1cccc(F)c1 [Example 62, (R)-3-(3-fluorophenyl)-N-(1-hydroxy-3-(1H-indol-3-yl)propan-2-yl)-7,8,9-trimethoxy-5,6-dihydropyrrolo[2,1-a]isoquinoline-2-carboxamide] was tested. Which pIC50 did it give?
**A.** > 7.00

**Q.** COc1cc2c(c(OC)c1OC)-c1cc(C(=O)N[C@@H](CO)Cc3c[nH]c4ccccc34)c(-c3ccccc3)n1CC2 [Example 63, (R)—N-(1-hydroxy-3-(1H-indol-3-yl)propan-2-yl)-8,9,10-trimethoxy-3-phenyl-5,6-dihydropyrrolo[2,1-a]isoquinoline-2-carboxamide] was tested. Which pIC50 did it give?
**A.** > 7.00

**Q.** COc1cc2c(c(OC)c1OC)-c1cc(C(=O)N[C@@H](CO)Cc3c[nH]c4ccccc34)c(-c3cccs3)n1CC2 [Example 64, (R)—N-(1-hydroxy-3-(1H-indol-3-yl)propan-2-yl)-8,9,10-trimethoxy-3-(thiophen-2-yl)-5,6-dihydropyrrolo[2,1-a]isoquinoline-2-carboxamide] was tested. Which pIC50 did it give?
**A.** > 7.00

**Q.** COc1cc2c(c(OC)c1OC)-c1cc(C(=O)N[C@@H](CO)Cc3c[nH]c4ccccc34)c(-c3cccc(F)c3)n1CC2 [Example 65, (R)-3-(3-fluorophenyl)-N-(1-hydroxy-3-(1H-indol-3-yl)propan-2-yl)-8,9,10-trimethoxy-5,6-dihydropyrrolo[2,1-a]isoquinoline-2-carboxamide] was tested. Which pIC50 did it give?
**A.** > 7.00

**Q.** COc1cc2c(cc1OC)-c1nc(C(=O)N[C@@H](CO)Cc3c[nH]c4ccccc34)c(-c3cccc(F)c3)n1CC2 [Example 66, (R)-3-(3-fluorophenyl)-N-(1-hydroxy-3-(1H-indol-3-yl)propan-2-yl)-8,9-dimethoxy-5,6-dihydroimidazo[2,1-a]isoquinoline-2-carboxamide] was tested. Which pIC50 did it give?
**A.** 6.00 to 7.00

**Q.** With COc1cc2c(cc1OC)-c1nc(C(=O)N[C@@H](CO)Cc3c[nH]c4ccccc34)c(-c3ccccc3F)n1CC2 [Example 67, 3-(2-fluorophenyl)-N—((R)-1-hydroxy-3-(1H-indol-3-yl)propan-2-yl)-8,9-dimethoxy-5,6-dihydroimidazo[2,1-a]isoquinoline-2-carboxamide] as the molecule, how does the pIC50 read?
**A.** 6.00 to 7.00
